The experiment concerns the target T1, Dehaloperoxidase B (Amphitrite ornata, UniProt Q9NAV7).
T1 sequence (Q9NAV7 whole entry): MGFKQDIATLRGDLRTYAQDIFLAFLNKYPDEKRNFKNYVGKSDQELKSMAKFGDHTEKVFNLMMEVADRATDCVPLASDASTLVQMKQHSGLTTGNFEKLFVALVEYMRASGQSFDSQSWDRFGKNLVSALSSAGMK
In words: Resonance Raman Assay. The conditions noted are these: pH 7. As to the method:
Samples for solution resonance Raman spectroscopic studies were prepared withfinal concentrations of 75 μM WT DHP B and 3.75 mM azole in 100 mM KPi (pH 7 or 9) containing 10% MeOH (v/v) and then transferred to a 5 mm outside diameter glass NMR tube. Anaerobic samples were prepared inside a glovebox in the same fashion using septum-capped NMR tubes. Spectra were recorded by Soret band excitation (400−430 nm, 60 mW power) as previously described. [Barrios et al., J. Am. Chem. Soc., 136:7914-7925]

For orientation: Kd means the constant that tells how readily two partners part at equilibrium. The low end stands for tighter binding, the high end for weaker binding. As to `c1ccc2[nH]cnc2c1` [1H-1,3-benzodiazole], the dissociation constant (Kd) stood at 110 µM. The molecule `c1c[nH]cn1` returned an equilibrium dissociation constant (Kd) of 52 µM. “1,2,3-benzotriazole::Benzotriazole (Bta)” gave a Kd of 82 µM.

The values above are taken from BindingDB's records for doi:10.1021/acs.biochem.7b00041 (North Carolina State University, 2017).
